# Data reported in patent publication US8686184B2, “Neprilysin inhibitors” (Theravance, Inc., priority 2011, dated 2014).
# Target: T1, human neprilysin (EC 3.4.24.11; NEP) (Homo sapiens, UniProt P08473)
# T1 construct: purchased R&D Systems, Minneapolis, Minn; 1182-ZN
# Test: In vitro enzyme inhibition assay at human NEP (fluorogenic peptide substrate)
# Assay type: biochemical
# Conditions: recombinant human NEP; 37° C.; substrate Mca-D-Arg-Arg-Leu-Dap-(Dnp)-OH 10 μM; values given as ranges; read-out: pKi values at human NEP (converted)
# Method: In vitro Assays for the Quantitation of Inhibitor Potencies at Human and Rat NEP, and Human ACE
# The inhibitory activities of compounds at human and rat neprilysin (EC 3.4.24.11; NEP) and human angiotensin converting enzyme (ACE) were determined using in vitro assays as described below.
# Recombinant human NEP and recombinant human ACE were obtained commercially (R&D Systems, Minneapolis, Minn., catalog numbers 1182-ZN and 929-ZN, respectively). The fluorogenic peptide substrate Mca-D-Arg-Arg-Leu-Dap-(Dnp)-OH (Medeiros et al. (1997) Braz. J. Med. Biol. Res. 30:1157-62; Anaspec, San Jose, Calif.) and Abz-Phe-Arg-Lys(Dnp)-Pro-OH (Araujo et al. (2000) Biochemistry 39:8519-8525; Bachem, Torrance, Calif.) were used in the NEP and ACE assays respectively.
# The assays were performed in 384-well white opaque plates at 37° C. using the fluorogenic peptide substrates at a concentration of 10 μM in Assay Buffer (NEP: 50 mM HEPES, pH 7.5, 100 mM NaCl, 0.01% polyethylene glycol sorbitan monolaurate (Tween-20), 10 μM ZnSO4; ACE: 50 mM HEPES, pH 7.5, 100 mM NaCl, 0.01% Tween-20, 1 μM ZnSO4).
# Test compounds were assayed over the range of concentrations from 10 μM to 20 pM. Test compounds were added to the enzymes and incubated for 30 minute at 37° C. prior to initiating the reaction by the addition of substrate. Reactions were terminated after 20 minutes of incubation at 37° C. by the addition of glacial acetic acid to a final concentration of 3.6% (v/v).
# Plates were read on a fluorometer with excitation and emission wavelengths set to 320 nm and 405 nm, respectively Inhibition constants were obtained by nonlinear regression of the data using the equation (GraphPad Software, Inc., San Diego, Calif.): v=v0/[1+(I/K′)] where v is the reaction rate, v0 is the uninhibited reaction rate, I is the inhibitor concentration and K′ is the apparent inhibition constant.
# Compounds of the invention were tested in this assay and found to have pKi values at human NEP as follows.
# T1 sequence (P08473 52-750 limits assumed): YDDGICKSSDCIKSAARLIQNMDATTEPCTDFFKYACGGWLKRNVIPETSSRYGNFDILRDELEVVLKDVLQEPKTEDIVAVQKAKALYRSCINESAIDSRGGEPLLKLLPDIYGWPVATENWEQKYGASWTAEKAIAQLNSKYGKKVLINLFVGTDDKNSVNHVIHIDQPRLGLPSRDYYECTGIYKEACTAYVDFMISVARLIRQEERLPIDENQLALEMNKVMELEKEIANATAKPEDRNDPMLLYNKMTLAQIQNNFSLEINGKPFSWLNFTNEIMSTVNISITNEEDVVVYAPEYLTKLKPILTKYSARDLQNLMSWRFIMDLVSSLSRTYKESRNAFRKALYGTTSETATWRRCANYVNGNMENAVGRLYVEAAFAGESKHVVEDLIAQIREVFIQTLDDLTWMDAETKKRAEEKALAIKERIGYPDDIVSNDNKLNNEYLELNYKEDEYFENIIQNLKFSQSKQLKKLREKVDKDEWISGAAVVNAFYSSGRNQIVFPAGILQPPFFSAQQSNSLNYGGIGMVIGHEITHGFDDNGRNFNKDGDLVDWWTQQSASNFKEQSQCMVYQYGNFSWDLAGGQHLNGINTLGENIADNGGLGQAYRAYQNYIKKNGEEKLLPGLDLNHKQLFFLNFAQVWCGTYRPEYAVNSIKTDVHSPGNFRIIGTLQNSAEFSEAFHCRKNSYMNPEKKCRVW
row,SMILES,Ki
1,"O=C(CCCc1cc(F)ccc1C(=O)O)N[C@H](Cc1ccccc1Cl)[C@@H](O)C(=O)O [Example 2-1, 2-{3-[(1R,2R)-2-Carboxy-1-(2-chlorobenzyl)-2-hydroxy-ethylcarbamoyl]-propyl}-4-fluoro-benzoic acid]",≤ 1 nM
2,"O=C(N[C@H](Cc1ccccc1Cl)[C@@H](O)C(=O)O)c1cc(F)c(F)c(-c2ccccc2C(=O)O)c1 [Example 3, 5′-[(1R,2R)-2-Carboxy-1-(2-chlorobenzyl)-2-hydroxy-ethylcarbamoyl]-2′,3′-difluoro-biphenyl-2-carb oxylic Acid]",≤ 1 nM
3,"CCc1ccc(C(=O)N[C@H](Cc2ccccc2Cl)[C@@H](O)C(=O)O)cc1-n1c(=O)[nH]c2sc(C)cc2c1=O [Example 4, (2R,3R)-4-(2-Chlorophenyl)-3-[4-ethyl-3-(6-methyl-2,4-dioxo-1,4-dihydro-2H-thieno[2,3-d]pyrimidin-3-yl)-benzoylamino]-2-hydroxy-butyric Acid]",≤ 1 nM
4,"O=C(N[C@H](Cc1ccccc1Cl)[C@@H](O)C(=O)O)c1cc(F)cc(-c2ccccc2C(=O)O)c1 [Example 6-1, 5′-[(1R,2R)-2-Carboxy-1-(2-chlorobenzyl)-2-hydroxy-ethylcarbamoyl]-3′-fluoro-biphenyl-2-carboxylic acid]",1.26 to 10 nM
5,"O=C(N[C@H](Cc1ccccc1Cl)[C@@H](O)C(=O)O)c1cc(Cl)cc(-c2ccccc2C(=O)O)c1 [Example 6-2, 5′-[(1R,2R)-2-Carboxy-1-(2-chlorobenzyl)-2-hydroxy-ethylcarbamoyl]-3′-chloro-biphenyl-2-carboxylic acid]",≤ 1 nM
6,"O=C(N[C@H](Cc1ccccc1Cl)[C@@H](O)C(=O)O)c1ccc(Cl)c(-c2ccccc2C(=O)O)c1 [Example 6-3, 5′-[(1R,2R)-2-Carboxy-1-(2-chlorobenzyl)-2-hydroxy-ethylcarbamoyl]-2′-chloro-biphenyl-2-carboxylic acid]",≤ 1 nM
7,"O=C(N[C@H](Cc1ccccc1Cl)[C@@H](O)C(=O)O)c1cc(Cl)c(F)c(-c2ccccc2C(=O)O)c1 [Example 6-4, 5′-[(1R,2R)-2-Carboxy-1-(2-chlorobenzyl)-2-hydroxy-ethylcarbamoyl]-3′-chloro-2′-fluoro-biphenyl-2-carboxylic acid]",1.26 to 10 nM
8,"Cc1ccc(C(=O)N[C@H](Cc2ccccc2Cl)[C@H](O)C(=O)O)cc1-c1ccccc1C(=O)O [Example 6-5, 5′-[(1R,2S)-2-Carboxy-1-(2-chlorobenzyl)-2-hydroxy-ethylcarbamoyl]-2′-methyl-biphenyl-2-carboxylic acid]",12.6 to 100 nM
9,"Cc1ccc(C(=O)N[C@H](Cc2ccccc2Cl)[C@@H](O)C(=O)O)cc1-c1ccccc1C(=O)O [Example 6-6, 5′-[(1R,2R)-2-Carboxy-1-(2-chlorobenzyl)-2-hydroxy-ethylcarbamoyl]-2′-methyl-biphenyl-2-carboxylic acid]",≤ 1 nM
10,"COc1ccc(C(=O)N[C@H](Cc2ccccc2Cl)[C@@H](O)C(=O)O)cc1-c1ccccc1C(=O)O [Example 6-7, 5′-[(1R,2R)-2-Carboxy-1-(2-chlorobenzyl)-2-hydroxy-ethylcarbamoyl]-2′-methoxy-biphenyl-2-carboxylic acid]",12.6 to 100 nM
11,"Cc1cc(C(=O)N[C@H](Cc2ccccc2Cl)[C@@H](O)C(=O)O)ccc1-c1ccccc1C(=O)O [Example 6-8, 4′-[(1R,2R)-2-Carboxy-1-(2-chlorobenzyl)-2-hydroxy-ethylcarbamoyl]-2′-methyl-biphenyl-2-carboxylic acid]",1.26 to 10 nM
12,"O=C(N[C@H](Cc1ccccc1Cl)[C@@H](O)C(=O)O)c1ccc(-c2ccccc2C(=O)O)c(F)c1 [Example 6-9, 4′-[(1R,2R)-2-Carboxy-1-(2-chlorobenzyl)-2-hydroxy-ethylcarbamoyl]-2′-fluoro-biphenyl-2-carboxylic acid]",1.26 to 10 nM
13,"O=C(N[C@H](Cc1ccccc1Cl)[C@@H](O)C(=O)O)c1ccc(N2N=C(C(F)(F)F)CC2=O)cc1 [Example 6-14, (2R,3R)-4-(2-Chlorophenyl)-2-hydroxy-3-[4-(5-oxo-3-trifluoromethyl-4,5-dihydro-pyrazol-1-yl)-benzoylamino]-butyric acid]",12.6 to 100 nM
14,"CC1=NN(c2ccc(C(=O)N[C@H](Cc3ccccc3Cl)[C@H](O)C(=O)O)cc2)C(=O)C1 [Example 6-15, (2S,3R)-4-(2-Chlorophenyl)-2-hydroxy-3-[4-(3-methyl-5-oxo-4,5-dihydro-pyrazol-1-yl)-benzoylamino]-butyric acid]",1.26 to 10 nM
15,"CCc1ccc(C(=O)N[C@H](Cc2ccccc2Cl)[C@@H](O)C(=O)O)cc1N1N=C(C)CC1=O [Example 6-17, (2R,3R)-4-(2-Chlorophenyl)-3-[4-ethyl-3-(3-methyl-5-oxo-4,5-dihydro-pyrazol-1-yl)-benzoylamino]-2-hydroxy-butyric acid]",1.26 to 10 nM
16,"CC1=NN(Cc2ccc(C(=O)N[C@H](Cc3ccccc3Cl)[C@@H](O)C(=O)O)cc2)C(=O)C1 [Example 6-19, (2R,3R)-4-(2-Chlorophenyl)-2-hydroxy-3-[4-(3-methyl-5-oxo-4,5-dihydro-pyrazol-1-ylmethyl)-benzoylamino]-butyric acid]",12.6 to 100 nM
17,"Cc1nn(-c2ccc(C(=O)N[C@H](Cc3ccccc3)[C@@H](O)C(=O)O)cc2)c(C)c1Cl [Example 10-1, (2R,3R)-3-[4-(4-Chloro-3,5-dimethyl-pyrazol-1-yl)-benzoylamino]-2-hydroxy-4-phenyl-butyric acid]",12.6 to 100 nM
18,"O=C(N[C@H](Cc1ccccc1)[C@@H](O)C(=O)O)c1ccc(-n2cccn2)cc1 [Example 10-2, (2R,3R)-2-Hydroxy-4-phenyl-3-(4-pyrazol-1-yl-benzoylamino)-butyric acid]",12.6 to 100 nM
19,"O=C(N[C@H](Cc1ccccc1)[C@@H](O)C(=O)O)c1ccc(-n2ccc(C(F)(F)F)n2)cc1 [Example 10-3, (2R,3R)-2-Hydroxy-4-phenyl-3-[4-(3-trifluoromethyl-pyrazol-1-yl)-benzoylamino]-butyric acid]",12.6 to 100 nM
20,"Cc1cc(C)n(-c2ccc(C(=O)N[C@H](Cc3ccccc3)[C@@H](O)C(=O)O)cc2)n1 [Example 10-4, (2R,3R)-3-[4-(3,5-Dimethyl-pyrazol-1-yl)-benzoylamino]-2-hydroxy-4-phenyl-butyric acid]",12.6 to 100 nM
21,"Cc1cc(C)n(-c2cccc(C(=O)N[C@H](Cc3ccccc3)[C@@H](O)C(=O)O)c2)n1 [Example 10-5, (2R,3R)-3-[3-(3,5-Dimethyl-pyrazol-1-yl)-benzoylamino]-2-hydroxy-4-phenyl-butyric acid]",12.6 to 100 nM
22,"Cc1cc(C)n(-c2cc(C(=O)N[C@H](Cc3ccccc3)[C@@H](O)C(=O)O)ccc2F)n1 [Example 10-6, (2R,3R)-3-[3-(3,5-Dimethylpyrazol-1-yl)-4-fluorobenzoylamino]-2-hydroxy-4-phenyl-butyric acid]",12.6 to 100 nM
23,"Cc1cc(C)n(-c2cc(C(=O)N[C@H](Cc3ccccc3)[C@@H](O)C(=O)O)ccc2C)n1 [Example 10-7, (2R,3R)-3-[3-(3,5-Dimethylpyrazol-1-yl)-4-methylbenzoylamino]-2-hydroxy-4-phenyl-butyric acid]",12.6 to 100 nM
24,"Cc1ccc(C(=O)N[C@H](Cc2ccccc2)[C@@H](O)C(=O)O)cc1-n1ccc(C(=O)O)n1 [Example 10-8, 1-[5-((1R,2R)-1-Benzyl-2-carboxy-2-hydroxyethylcarbamoyl)-2-methyl-phenyl]-1H-pyrazole-3-carboxylic acid]",12.6 to 100 nM
25,"O=C(N[C@H](Cc1ccccc1)[C@@H](O)C(=O)O)c1cccc(-c2ccccc2C(=O)O)c1 [Example 10-9, 3′-((1R,2R)-1-Benzyl-2-carboxy-2-hydroxy-ethylcarbamoyl)-biphenyl-2-carboxylic acid]",12.6 to 100 nM
26,"O=C(N[C@H](Cc1ccccc1)[C@@H](O)C(=O)O)c1cccc(-c2ccc(F)cc2C(=O)O)c1 [Example 10-10, 3′-((1R,2R)-1-Benzyl-2-carboxy-2-hydroxy-ethylcarbamoyl)-4-fluoro-biphenyl-2-carboxylic acid]",12.6 to 100 nM
27,"O=C(N[C@H](Cc1ccccc1)[C@@H](O)C(=O)O)c1cccc(-c2ccc(Cl)cc2C(=O)O)c1 [Example 10-11, 3′-((1R,2R)-1-Benzyl-2-carboxy-2-hydroxy-ethylcarbamoyl)-4-chloro-biphenyl-2-carboxylic acid]",12.6 to 100 nM
28,"O=C(N[C@H](Cc1ccccc1)[C@@H](O)C(=O)O)c1cccc(-c2cc(Cl)ccc2C(=O)O)c1 [Example 10-12, 3′-((1R,2R)-1-Benzyl-2-carboxy-2-hydroxy-ethylcarbamoyl)-5-chloro-biphenyl-2-carboxylic acid]",12.6 to 100 nM
29,"COc1ccc(C(=O)O)c(-c2cccc(C(=O)N[C@H](Cc3ccccc3)[C@@H](O)C(=O)O)c2)c1 [Example 10-13, 3′-((1R,2R)-1-Benzyl-2-carboxy-2-hydroxy-ethylcarbamoyl)-5-methoxy-biphenyl-2-carboxylic acid]",12.6 to 100 nM
